Laboratory results: ChEMBL document CHEMBL1201862, “PubChem BioAssay data set” (2004)
Values joined by “and” are separate entries in the source; they are usually repeats but may differ in a detail not shown here. Identical values can stand only once.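 All cell lines were grown in 96-well plates and treated with compound for 48 hours. At the GI50, growth is halved.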 Active and inactive are the calls of the source. No stated cut-off is given here; in the data, active = GI50 up to about 1.1 µM and inactive = higher.

Assays:
Experiment in all cases: NCI anticancer screen, dose series, 48 h
HL-60 = test system: HL-60
SNB-19 = test system: SNB-19
NCI/ADR-RES = test system: NCI/ADR-RES
MDA-MB-231 = test system: MDA-MB-231
MDA-MB-435 = test system: MDA-MB-435
CCRF-CEM = test system: CCRF-CEM
MOLT-4 = test system: MOLT-4
OVCAR-4 = test system: OVCAR-4
LOX IMVI = test system: LOX IMVI
UACC-62 = test system: UACC-62
K562 = test system: K562
786-0 = test system: 786-0
OVCAR-5 = test system: OVCAR-5
SF-539 = test system: SF-539
SK-OV-3 = test system: SK-OV-3
NCI-H522 = test system: NCI-H522
A549 = test system: A549
UACC-257 = test system: UACC-257
SR = test system: SR

Compound | GI50 (HL-60) | GI50 (SNB-19) | GI50 (NCI/ADR-RES) | GI50 (MDA-MB-231) | GI50 (MDA-MB-435) | GI50 (CCRF-CEM) | GI50 (MOLT-4) | GI50 (OVCAR-4) | GI50 (LOX IMVI) | GI50 (UACC-62) | GI50 (K562) | GI50 (786-0) | GI50 (OVCAR-5) | GI50 (SF-539) | GI50 (SK-OV-3) | GI50 (NCI-H522) | GI50 (A549) | GI50 (UACC-257) | GI50 (SR)
COC(=O)[C@H](Cc1c[nH]c2ccccc12)NP(=O)(O)OCC1C=CC(n2cc(C)c(=O)[nH]c2=O)O1 (some centres not stated) | > 100 µM (inactive) | > 100 µM (inactive) | > 100 µM (inactive) | > 100 µM (inactive) | > 100 µM (inactive) | > 100 µM (inactive) | > 100 µM (inactive) | > 100 µM (inactive) | > 100 µM (inactive) | > 100 µM (inactive) | > 100 µM (inactive) | > 100 µM (inactive) |  |  |  |  |  |  | 
Nc1nc(N)c2ncn(-c3ccc(Cl)cc3)c2n1 | 82 µM (inactive) |  | 33.7 µM (inactive) | 63.2 µM (inactive) | 87.3 µM (inactive) | 20.9 µM (inactive) |  | 80.5 µM (inactive) | 36.6 µM (inactive) | 29.7 µM (inactive) |  | 70.3 µM (inactive) | 16.7 µM (inactive) | 27.4 µM (inactive) | 20.5 µM (inactive) | 28.6 µM (inactive) | 37 µM (inactive) | > 100 µM (inactive) | 
COC(=O)[C@H](Cc1c[nH]c2ccccc12)NP(=O)(OCCC#N)OCC1OC(n2cc(C)c(=O)[nH]c2=O)CC1N=[N+]=[N-] (some centres not stated) | > 100 µM (inactive) | > 100 µM (inactive) | > 100 µM (inactive) | > 100 µM (inactive) | > 100 µM (inactive) | > 100 µM (inactive) | > 100 µM (inactive) | > 100 µM (inactive) | > 100 µM (inactive) | > 100 µM (inactive) | > 100 µM (inactive) | > 100 µM (inactive) | > 100 µM (inactive) |  | > 100 µM (inactive) | > 100 µM (inactive) | > 100 µM (inactive) | > 100 µM (inactive) | 
CC(C)=CCC/C(=C/CC/C(C)=C/CCc1ccoc1)C(=O)O |  | > 100 µM (inactive) |  |  |  | > 100 µM (inactive) | > 100 µM (inactive) | > 100 µM (inactive) | > 100 µM (inactive) | > 100 µM (inactive) | > 100 µM (inactive) | > 100 µM (inactive) | 26.5 µM (inactive) | > 100 µM (inactive) | > 100 µM (inactive) | > 100 µM (inactive) | > 100 µM (inactive) | > 100 µM (inactive) | 
CNC(=O)N1CN(c2ccccc2)C2(CCN(CCCC(=O)c3ccc(F)cc3)CC2)C1=O | 15.2 µM (inactive) | 17.3 µM (inactive) | 17.6 µM (inactive) | 25.2 µM (inactive) |  | 13.9 µM (inactive) | 4.57 µM (inactive) |  | 17.1 µM (inactive) | 18.7 µM (inactive) | 19.5 µM (inactive) | 26.1 µM (inactive) | 11.7 µM (inactive) | 13.9 µM (inactive) | 31.8 µM (inactive) | 24.9 µM (inactive) | 45.1 µM (inactive) | 7.64 µM (inactive) | 21.9 µM (inactive)
COc1ccccc1/C=C/c1cnccn1 | > 10 µM (inactive) | > 10 µM (inactive) | > 10 µM (inactive) | > 10 µM (inactive) | > 10 µM (inactive) | > 10 µM (inactive) | > 10 µM (inactive) | > 10 µM (inactive) | > 10 µM (inactive) | > 10 µM (inactive) | > 10 µM (inactive) | > 10 µM (inactive) | > 10 µM (inactive) | > 10 µM (inactive) | > 10 µM (inactive) | > 10 µM (inactive) | > 10 µM (inactive) | > 10 µM (inactive) | 
CC(CO)[C@H]1OC(=O)C=C2[C@@]13O[C@@H]3[C@H]1OC(=O)[C@@]3(C)[C@H]4O[C@H]4C[C@@]2(C)[C@@H]13 (some centres not stated) | 0.343 µM (active) | 1.47 µM (inactive) |  | 2.51 µM (inactive) | 1.55 µM (inactive) | 0.5 µM (active) | 0.488 µM (active) | 1.15 µM (inactive) | 0.249 µM (active) | 1.16 µM (inactive) | 1.17 µM (inactive) | 1.57 µM (inactive) | 3.78 µM (inactive) | 1.83 µM (inactive) | 3.02 µM (inactive) | 1.46 µM (inactive) | 1.87 µM (inactive) | 1.44 µM (inactive) | 0.288 µM (active)
COC(=O)C1OC(O[C@H]2CC[C@]3(C)[C@H]4CC=C5[C@@H]6CC(C)(C)CC[C@]6(C(=O)OC6OCC(O)C(O)C6OC6OC(C)C(OC7OCC(O)C(O)C7O)C(O)C6O)CC[C@@]5(C)[C@]4(C)CC[C@H]3C2(C)C)C(O)C(O)C1O (some centres not stated) | 21.2 µM (inactive) and 19.1 µM (inactive) | 13.6 µM (inactive) and 17.2 µM (inactive) |  |  | 19.1 µM (inactive) and 17.9 µM (inactive) | 22.6 µM (inactive) and 22.4 µM (inactive) | 19.3 µM (inactive) and 18.1 µM (inactive) | 15.8 µM (inactive) and 12.7 µM (inactive) | 16.4 µM (inactive) and 14.6 µM (inactive) | 18 µM (inactive) and 18.2 µM (inactive) | 25.8 µM (inactive) and 26 µM (inactive) | 15.7 µM (inactive) and 17.5 µM (inactive) | 16.5 µM (inactive) and 20.7 µM (inactive) |  | 21.2 µM (inactive) and 21.3 µM (inactive) | 16.1 µM (inactive) and 16.4 µM (inactive) | 16.9 µM (inactive) and 19.5 µM (inactive) | 14 µM (inactive) and 16 µM (inactive) | 13.1 µM (inactive) and 10.2 µM (inactive)
